Experimental data from ChEMBL document CHEMBL5725844, “Indazolyl thiadiazolamines and related compounds for inhibition of Rho-associated protein kinase and the treatment of disease” (2018).

Legend:
[1] = target: Rho-associated protein kinase 2 (Homo sapiens, UniProt O75116); experiment: (§1) Protein constructs were purified from a baculovirus expression system. The peptide substrate was fluorescent LANCE® Ultra ULight-CREBtide: […] (PerkinElmer, # TRF0107-D). Kinase reactions were carried out in a 10 μL volume in 384-well plates: 50 nM ULight-CREBtide substrate, 2 nM constitutively active ROCK1 or ROCK2 kinase, and test compound in DMSO (or DMSO only for controls) were diluted into assay buffer containing 50 mM Tris-HCl (pH=7.5), 10 mM MgCl2, 1 mM EGTA, 0.01% Tween-20, and 2 mM DTT such that the final concentration of DMSO was 0.5%. After a 90 minute incubation at room temperature on a shaker table, the kinase reaction was stopped by addition of 10 mM EDTA, and phosphorylation of the substrate was detected by adding 1 nM LANCE® Ultra Europium-anti-phospho-CREB (ser133) antibody (PerkinElmer, # TRF0200-D) and incubating for 60 minutes on a shaker at room temperature. The flurorescence resonance energy transfer (FRET) signals were read and analyzed on an Envision¿ 2103 Multilabel Reader (Perkin Elmer).
Rho-associated protein kinase 2, sequence (O75116 whole entry): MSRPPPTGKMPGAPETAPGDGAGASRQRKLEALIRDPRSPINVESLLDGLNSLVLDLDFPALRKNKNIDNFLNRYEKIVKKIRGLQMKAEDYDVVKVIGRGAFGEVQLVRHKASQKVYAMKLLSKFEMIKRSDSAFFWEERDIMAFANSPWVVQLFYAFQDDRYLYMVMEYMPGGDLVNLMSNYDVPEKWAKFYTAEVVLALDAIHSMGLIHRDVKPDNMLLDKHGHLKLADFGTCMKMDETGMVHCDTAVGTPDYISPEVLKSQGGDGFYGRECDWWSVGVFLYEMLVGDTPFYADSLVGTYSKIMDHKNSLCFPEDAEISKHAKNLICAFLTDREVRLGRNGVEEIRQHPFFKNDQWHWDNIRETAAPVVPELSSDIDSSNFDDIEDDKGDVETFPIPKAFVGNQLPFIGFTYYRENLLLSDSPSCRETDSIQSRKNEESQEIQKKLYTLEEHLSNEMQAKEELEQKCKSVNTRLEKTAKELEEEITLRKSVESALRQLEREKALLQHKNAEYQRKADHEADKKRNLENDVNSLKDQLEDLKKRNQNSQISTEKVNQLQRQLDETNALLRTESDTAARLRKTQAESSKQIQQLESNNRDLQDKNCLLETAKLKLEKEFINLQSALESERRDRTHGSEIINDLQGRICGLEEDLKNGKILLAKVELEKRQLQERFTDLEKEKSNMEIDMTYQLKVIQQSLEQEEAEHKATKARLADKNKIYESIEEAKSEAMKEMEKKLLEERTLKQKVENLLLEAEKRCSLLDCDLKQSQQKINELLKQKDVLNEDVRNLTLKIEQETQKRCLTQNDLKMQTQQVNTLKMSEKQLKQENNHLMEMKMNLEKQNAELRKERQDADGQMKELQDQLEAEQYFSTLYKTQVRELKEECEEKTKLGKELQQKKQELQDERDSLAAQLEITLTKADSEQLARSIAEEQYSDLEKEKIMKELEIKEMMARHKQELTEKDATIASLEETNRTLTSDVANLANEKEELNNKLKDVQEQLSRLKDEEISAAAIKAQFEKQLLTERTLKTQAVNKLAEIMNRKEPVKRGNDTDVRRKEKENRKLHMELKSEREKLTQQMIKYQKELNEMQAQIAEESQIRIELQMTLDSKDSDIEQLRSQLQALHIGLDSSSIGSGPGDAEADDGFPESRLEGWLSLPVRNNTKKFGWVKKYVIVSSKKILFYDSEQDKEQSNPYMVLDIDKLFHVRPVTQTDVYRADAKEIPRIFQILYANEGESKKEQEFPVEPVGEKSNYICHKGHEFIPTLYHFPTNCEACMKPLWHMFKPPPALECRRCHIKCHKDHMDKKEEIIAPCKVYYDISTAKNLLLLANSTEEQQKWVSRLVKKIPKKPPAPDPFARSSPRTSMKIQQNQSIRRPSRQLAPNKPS

[2] = target: Rho-associated protein kinase 1 (Homo sapiens, UniProt Q13464); experiment: as §1
Rho-associated protein kinase 1, sequence (Q13464 whole entry): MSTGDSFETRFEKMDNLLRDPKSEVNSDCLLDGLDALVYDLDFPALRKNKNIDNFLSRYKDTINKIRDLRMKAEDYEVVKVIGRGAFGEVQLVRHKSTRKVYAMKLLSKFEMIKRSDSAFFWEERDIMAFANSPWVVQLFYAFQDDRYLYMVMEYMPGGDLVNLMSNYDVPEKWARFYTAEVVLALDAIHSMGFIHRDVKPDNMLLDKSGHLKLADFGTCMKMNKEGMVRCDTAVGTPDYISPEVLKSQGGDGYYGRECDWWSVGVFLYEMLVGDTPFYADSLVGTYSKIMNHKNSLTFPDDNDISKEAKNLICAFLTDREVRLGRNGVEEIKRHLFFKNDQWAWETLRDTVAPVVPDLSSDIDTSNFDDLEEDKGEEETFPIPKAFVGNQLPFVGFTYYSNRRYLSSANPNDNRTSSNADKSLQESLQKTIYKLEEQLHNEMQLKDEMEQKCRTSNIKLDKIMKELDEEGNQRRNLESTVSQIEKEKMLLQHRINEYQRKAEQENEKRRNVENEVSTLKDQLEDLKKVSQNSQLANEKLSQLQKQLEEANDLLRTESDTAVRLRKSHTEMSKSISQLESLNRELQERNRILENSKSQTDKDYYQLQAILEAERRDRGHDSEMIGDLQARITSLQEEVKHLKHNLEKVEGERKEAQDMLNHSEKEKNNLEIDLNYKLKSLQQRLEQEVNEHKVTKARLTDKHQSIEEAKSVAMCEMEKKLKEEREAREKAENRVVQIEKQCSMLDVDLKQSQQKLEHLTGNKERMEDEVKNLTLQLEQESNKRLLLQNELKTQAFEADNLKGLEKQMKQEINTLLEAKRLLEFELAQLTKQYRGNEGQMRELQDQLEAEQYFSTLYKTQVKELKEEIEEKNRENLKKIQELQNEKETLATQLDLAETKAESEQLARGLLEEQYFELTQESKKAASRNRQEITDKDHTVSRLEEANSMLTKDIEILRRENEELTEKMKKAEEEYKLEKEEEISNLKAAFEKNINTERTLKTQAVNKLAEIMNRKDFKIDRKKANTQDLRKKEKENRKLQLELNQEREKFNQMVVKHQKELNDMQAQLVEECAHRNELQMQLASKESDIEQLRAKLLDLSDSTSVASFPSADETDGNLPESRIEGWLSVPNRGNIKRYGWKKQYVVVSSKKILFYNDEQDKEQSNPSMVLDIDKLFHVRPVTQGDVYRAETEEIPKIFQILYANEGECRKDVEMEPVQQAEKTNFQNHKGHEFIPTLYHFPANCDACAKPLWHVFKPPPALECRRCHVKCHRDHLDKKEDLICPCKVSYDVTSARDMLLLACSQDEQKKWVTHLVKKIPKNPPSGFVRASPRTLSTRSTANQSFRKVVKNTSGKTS

For `CC1(C(=O)Nc2cccc(-c3nnc(Nc4ccc5[nH]ncc5c4Cl)s3)c2)CCCCC1`, the IC50 [1] was < 1 µM.
In the case of `O=C(CC(F)(F)F)Nc1cccc(-c2nnc(Nc3ccc4[nH]ncc4c3Cl)s2)c1`, the IC50 [1] is reported as < 1 µM and the IC50 [2] is reported as < 1 µM.
For `CC(C)(O)C(=O)Nc1cccc(-c2nnc(Nc3ccc4[nH]ncc4c3Cl)s2)c1`, the IC50 [1] was < 1 µM and the IC50 [2] was < 1 µM.
In the case of `O=C(Nc1cccc(-c2nnc(Nc3ccc4[nH]ncc4c3Cl)s2)c1)C1CCCCC1`, the IC50 [1] is reported as < 1 µM and the IC50 [2] is reported as < 1 µM.
`CC(=O)Nc1cccc(-c2nnc(Nc3ccc4[nH]ncc4c3Br)s2)c1` was tested, and the IC50 [1] was < 1 µM and the IC50 [2] was < 1 µM.
In the case of `Clc1c(Nc2nnc(-c3cccc(-c4nccn4CCN4CCCC4)c3)s2)ccc2[nH]ncc12`, the IC50 [1] is reported as < 1 µM and the IC50 [2] is reported as > 30 µM.
`CN(C)CCn1cnc2c(-c3nnc(Nc4ccc5[nH]ncc5c4Cl)s3)cccc21` was tested, and the IC50 [1] was < 1 µM and the IC50 [2] was < 1 µM.
For `COCCOC(=O)Nc1cc(-c2nnc(Nc3ccc4[nH]ncc4c3Cl)s2)ccn1`, the IC50 [1] was < 1 µM and the IC50 [2] was > 30 µM.
`CCOC(=O)N(c1nnc(-c2cccc(NC(=O)Cc3ccc(F)cc3)c2)s1)c1ccc2[nH]ncc2c1Cl` was tested, and the IC50 [2] was > 30 µM.
For `Clc1c(Nc2nnc(-c3cccc4c3ncn4CCN3CCCC3)s2)ccc2[nH]ncc12`, the IC50 [2] was > 30 µM.
With `CC(=O)Nc1cc(C(=O)N2CCNCC2)cc(-c2nnc(Nc3ccc4[nH]ncc4c3Cl)s2)c1` the IC50 [1] was < 1 µM and the IC50 [2] was < 1 µM.
With `CC(=O)Nc1cc(C(N)=O)cc(-c2nnc(Nc3ccc4[nH]ncc4c3Cl)s2)c1` the IC50 [1] was < 1 µM and the IC50 [2] was < 1 µM.
For `Clc1c(Nc2nnc(-c3cccc(-c4nccn4CCN4CCOCC4)c3)s2)ccc2[nH]ncc12`, the IC50 [1] was < 1 µM and the IC50 [2] was < 1 µM.
`CC(=O)Nc1cc(C)cc(-c2nnc(Nc3ccc4[nH]ncc4c3)s2)c1` was tested, and the IC50 [1] was < 1 µM and the IC50 [2] was > 30 µM.
With `CN1CC(C(=O)Nc2cccc(-c3nnc(Nc4ccc5[nH]ncc5c4Cl)s3)c2)C1` the IC50 [1] was < 1 µM.
In the case of `CNC(=O)c1cc(NC(C)=O)cc(-c2nnc(Nc3ccc4[nH]ncc4c3Cl)s2)c1`, the IC50 [1] is reported as < 1 µM and the IC50 [2] is reported as < 1 µM.
For `CN1CCC(C(=O)Nc2cccc(-c3nnc(Nc4ccc5[nH]ncc5c4Cl)s3)c2)CC1`, the IC50 [1] was < 1 µM and the IC50 [2] was < 1 µM.
`Cc1cn2cccc(-c3nnc(Nc4ccc5[nH]ncc5c4Cl)s3)c2n1` was tested, and the IC50 [1] was < 1 µM and the IC50 [2] was < 1 µM.
With `CC(=O)Nc1ccc(Cl)c(-c2nnc(Nc3ccc4[nH]ncc4c3Cl)s2)c1` the IC50 [1] was < 1 µM and the IC50 [2] was > 30 µM.
`N#Cc1ccc(-c2cn3cccc(-c4nnc(Nc5ccc6[nH]ncc6c5Cl)s4)c3n2)cc1` was tested, and the IC50 [1] was < 1 µM and the IC50 [2] was > 30 µM.
For `CC(=O)Nc1cccc(-c2nnc(Nc3ccc4[nH]ncc4c3)s2)c1`, the IC50 [1] was < 1 µM and the IC50 [2] was < 1 µM.
With `CCCCOC(=O)N(c1nnc(-c2cccc(NC(=O)Cc3ccc(F)cc3)c2)s1)c1ccc2[nH]ncc2c1Cl` the IC50 [1] was < 1 µM and the IC50 [2] was > 30 µM.
With `CC(=O)Nc1cc(C(=O)NCCN(C)C)cc(-c2nnc(Nc3ccc4[nH]ncc4c3Cl)s2)c1` the IC50 [1] was < 1 µM and the IC50 [2] was < 1 µM.
In the case of `CC(=O)Nc1cc(C(=O)N2CCOCC2)cc(-c2nnc(Nc3ccc4[nH]ncc4c3Cl)s2)c1`, the IC50 [1] is reported as < 1 µM and the IC50 [2] is reported as < 1 µM.
In the case of `CC(=O)Nc1cc(C(N)=O)cc(-c2nnc(Nc3ccc4[nH]ncc4c3)s2)c1`, the IC50 [1] is reported as < 1 µM and the IC50 [2] is reported as < 1 µM.
`O=S(=O)(CCO)Nc1cccc(-c2nnc(Nc3ccc4[nH]ncc4c3)s2)c1` was tested, and the IC50 [1] was < 1 µM and the IC50 [2] was > 30 µM.
`O=C(Nc1cccc(-c2nnc(Nc3ccc4[nH]ncc4c3Cl)s2)c1)C(F)(F)F` was tested, and the IC50 [1] was < 1 µM and the IC50 [2] was > 30 µM.
In the case of `O=C(Nc1cccc(-c2nnc(Nc3ccc4[nH]ncc4c3Cl)s2)c1)C1CCNCC1`, the IC50 [1] is reported as < 1 µM.
For `NCc1ccc(C(=O)Nc2cccc(-c3nnc(Nc4ccc5[nH]ncc5c4)s3)c2)cn1`, the IC50 [1] was < 1 µM and the IC50 [2] was < 1 µM.
